ChEMBL document CHEMBL1132878, “Phosphonamidate and phosphothioate dipeptides as potential inhibitors of VanX” (Bioorg Med Chem Lett, 2000)
pKi: −log10 of the molar value. The source made the active and inactive calls. No cut-off for these calls is given here.

Experiments:
[1] = Compound was evaluated for inhibition of Van X at pH 7.0; No inhibition
[2] = system: Stenotrophomonas maltophilia; experiment: Tested for inhibitory activity against metallo-beta-lactamase L1 from Stenotrophomonas maltophilia at compound concentration up to […] at pH 7.0 using nitrocefin as substrate; No inhibition; type: functional
[3] = Compound was evaluated for inhibition of Van X at pH 7.0
[4] = Compound was evaluated for inhibition of Van X

SMILES | Ki [1] | Activity [2] | pKi [3] | Kis [4]
CC(N)P(=O)(O)SCC(=O)O (configuration not stated) | Not Active | inactive | – | –
CC(OP(=O)(O)C(C)N)C(=O)O (configuration not stated) | – | inactive | 3.40 | –
CC(NP(=O)(O)C(C)N)C(=O)O (configuration not stated) | – | inactive | 4.44 | –
CC(C[PH](=O)C(C)N)C(=O)O (configuration not stated) | – | – | – | 0.32 µM
